# Article PMC6731142 (Cell, 2019)
# Bridge positions count the residues as written; N and C are the ends. Ends that are not written are not given here. * marks the point of attachment. Biotin = O=C1N[C@H]2[C@H](CS[C@H]2CCCCC(=O)*)N1
# Experiments:
# [1] = target: T1, hTRPA1 (Homo sapiens, UniProt O75762); type: cell-based; details: human TRPA1-transfected HEK cells, whole-cell; mean ± SEM; p < 0.05 unpaired two-tailed t-test
# [2] = target: T1, hTRPA1; assay: Single-channel cell-attached and excised-patch recordings of TRPA1 in HEK cells; type: cell-based; details: for Effect on divalent over monovalent cation selectivity: excised patches, AITC 50 μM, n = 3–7 patches/condition; for Effect on divalent over monovalent cation selectivity / Duration of evoked channel openings / Average latency to first channel opening: WaTx 100 nM; for Duration of evoked channel openings / Average latency to first channel opening: inside-out patches, AITC 10 μM; for Duration of evoked channel openings: Vh = −40 mV, n = 6–8 patches/treatment; for Average latency to first channel opening: n = 13–14 patches/treatment
# [3] = system: mouse hindpaw; assay: Neurogenic inflammation: paw edema and Evan's Blue Dye extravasation; type: in vivo; details: intrathecally capsaicin ablated mice; AITC 0.75% v/v
# [4] = system: cultured rat trigeminal neurons; assay: CGRP release ELISA from cultured trigeminal neurons; type: cell-based; details: WaTx 10 μM
# [5] = system: mouse hindpaw; assay: Thermal; type: in vivo; details: for Mechanical hypersensitivity in capsaicin-ablated animals: intrathecally capsaicin ablated mice, n = 6–8 mice/treatment; for Hypersensitivity to thermal and mechanical stimuli: wild-type mice, intraplantar injection
# [6] = system: mouse hindpaw; details: for Acute nocifensive behavior in capsaicin-ablated animals: intrathecally capsaicin ablated mice
# [7] = system: rat snake TRPA1 (rsTRPA1); details: ref Banzawa et al., 2014; McNamara et al., 2007; cited from earlier work
# [8] = system: human TRPA1; type: cell-based; details: WaTx 1 μM, whole-cell, n = 3–9 cells/construct
# [9] = system: trigeminal sensory neurons; assay: Ca2+ imaging of cultured mouse trigeminal sensory neurons; type: cell-based
# [10] = target: T1, hTRPA1; type: binding; details: wild-type hTRPA1-transfected HEK293 membranes
# [11] = system: rsTRPA1; type: binding, Texas rat snake (Elaphe obsoleta lindheimeri); details: gain-of-function mutant A627P
# [12] = system: rat snake TRPA1 (rsTRPA1); assay: Whole-cell patch-clamp recordings of rat snake TRPA1 in transfected HEK cells; type: cell-based, Texas rat snake (Elaphe obsoleta lindheimeri)
# [13] = target: human TRPA1, full-length wild type (human, UniProt O75762 1-1119); assay: BLI
# Sequence of human TRPA1, full-length wild type (O75762 whole entry): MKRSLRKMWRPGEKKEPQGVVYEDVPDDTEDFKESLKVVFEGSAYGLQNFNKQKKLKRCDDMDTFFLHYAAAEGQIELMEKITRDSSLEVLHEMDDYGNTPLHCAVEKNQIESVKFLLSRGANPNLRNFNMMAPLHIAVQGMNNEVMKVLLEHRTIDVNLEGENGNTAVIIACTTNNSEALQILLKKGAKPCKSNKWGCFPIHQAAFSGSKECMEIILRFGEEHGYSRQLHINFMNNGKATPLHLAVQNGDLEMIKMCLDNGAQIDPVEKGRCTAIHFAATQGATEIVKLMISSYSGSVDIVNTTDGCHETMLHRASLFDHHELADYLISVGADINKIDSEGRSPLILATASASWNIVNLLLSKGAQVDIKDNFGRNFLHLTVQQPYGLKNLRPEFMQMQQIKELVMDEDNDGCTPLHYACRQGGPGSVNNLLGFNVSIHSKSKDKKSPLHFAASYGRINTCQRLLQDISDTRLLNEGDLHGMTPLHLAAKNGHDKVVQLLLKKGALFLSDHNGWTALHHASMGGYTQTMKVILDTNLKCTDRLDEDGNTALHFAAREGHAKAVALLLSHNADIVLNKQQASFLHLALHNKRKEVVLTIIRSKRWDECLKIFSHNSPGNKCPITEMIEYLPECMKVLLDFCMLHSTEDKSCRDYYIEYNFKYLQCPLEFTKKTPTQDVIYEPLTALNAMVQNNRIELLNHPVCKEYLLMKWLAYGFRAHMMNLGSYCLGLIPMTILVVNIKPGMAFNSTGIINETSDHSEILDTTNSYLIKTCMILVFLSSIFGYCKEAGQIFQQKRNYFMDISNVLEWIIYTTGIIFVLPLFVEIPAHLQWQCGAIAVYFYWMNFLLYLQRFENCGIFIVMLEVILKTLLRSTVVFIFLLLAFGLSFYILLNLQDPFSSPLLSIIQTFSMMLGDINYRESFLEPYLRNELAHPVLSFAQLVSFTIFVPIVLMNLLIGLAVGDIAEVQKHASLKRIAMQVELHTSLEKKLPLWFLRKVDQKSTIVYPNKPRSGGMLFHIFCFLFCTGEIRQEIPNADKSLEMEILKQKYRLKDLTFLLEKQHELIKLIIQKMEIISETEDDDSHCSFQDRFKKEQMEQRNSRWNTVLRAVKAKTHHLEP
# T1 sequence (O75762 whole entry): as above
molecule,measurement,setting,value
"C=CCN=C=S [AITC, allyl isothiocyanate, reference compound]",τoff (reversal of membrane currents upon washout),[1],27 ± 5 s
same,Effect on divalent over monovalent cation selectivity,[2],small but significant increase in divalent cation selectivity
same,Duration of evoked channel openings,[2],≤ 5 ms
same,Average latency to first channel opening,[2],dramatically shortened
same,Paw swelling in capsaicin-ablated animals,[3],produced swelling
same,"CGRP release, physiological extracellular Ca2+","[4]; 2mM extracellular Ca2+, AITC 100 μM, 5 min at RT",promoted robust CGRP release
same,Mechanical hypersensitivity in capsaicin-ablated animals,[5],developed mechanical hypersensitivity (albeit with a delayed onset)
same,Hypersensitivity to thermal and mechanical stimuli,[5],substantial and long-lasting hypersensitivity
same,Acute nocifensive behavior in capsaicin-ablated animals,[6],not acute nocifensive behavior
CC(C)c1ccc(NC(=O)Cn2cnc3c2c(=O)n(C)c(=O)n3C)cc1 [HC 030031],Inhibitor effectiveness against rsTRPA1,[7],effective
"WaTx (Biotin-GSGSASPQQAKYCYEQCNVNKVPFDQCYQMCSPLERS; disulfide 13-31, 17-27; not fully specified)",τoff (reversal of membrane currents upon washout),[1],4.6 ± 1.2 s
same,"Toxin sensitivity of hTRPA1 mutants P622A, M634L, T646P",[8],abrogated toxin sensitivity
same,Effect on neurons from TRPA1-deficient animals,"[9]; WaTx 5 μM, TRPA1−/− mouse trigeminal neuron cultures",no effect
same,"Selectivity of neuron excitation, wild-type mice","[9]; saturating dose 5μM WaTx, AITC 50μM",excited only the cohort sensitive to a selective dose of AITC
same,Binding of hTRPA1 membranes,[10],Robust binding
same,Binding of rsTRPA1 A627P membranes,[11],did display binding
same,Activation of channels in cell-attached mode,"[2]; cell-attached HEK cell patches, n = 12",WaTx-evoked responses in the on-cell patch configuration
same,Activation of channels in excised patches,"[2]; excised outside-out / inside-out patches, bath application",activity was observed in either configuration
same,Effect on divalent over monovalent cation selectivity,[2],largely abolished
same,Duration of evoked channel openings,[2],≤ 20 ms
same,Average latency to first channel opening,[2],"indistinguishable from that of basal, spontaneous events"
same,"CGRP release, raised extracellular Ca2+",[4]; 20mM extracellular Ca2+ (10-fold),able to promote CGRP release
same,Mechanical hypersensitivity in capsaicin-ablated animals,[5],failed to exhibit any signs of mechanical hypersensitivity
same,Hypersensitivity to thermal and mechanical stimuli,[5],substantial and long-lasting hypersensitivity
same,Toxin sensitivity of rsTRPA1 A627P,"[12]; WaTx 5 μM, whole-cell",sufficient to confer toxin sensitivity
same,Sensitivity of rat snake TRPA1 to toxin,"[12]; whole-cell patch clamp, n = 4–12 HEK cells/condition",insensitive
same,Nocifensive (pain-related) behavior,"[6]; 20 μL intraplantar to hindpaw, wild-type mice, scored 20 min","vigorous, dose-dependent nocifensive (pain-related) behavior"
same,Nocifensive and c-Fos responses in TRPA1-deficient mice,[6]; TRPA1−/− mice,not observed
same,c-Fos immunoreactivity in superficial laminae of spinal cord dorsal horn,"[6]; after hindpaw injection, wild-type mice, n = 22–39 sections/group",induction of c-Fos immunoreactivity
same,Acute nocifensive behavior in capsaicin-ablated animals,[6],lacked acute nocifensive behavior
CCC(=N\O)/C(C)=C/c1ccc(F)cc1 [A 967079],Inhibitor effectiveness against rsTRPA1,[7],ineffective
GSGSASPQQAKYCYEQCNVNKVPFDQCYQMCSPLERS (biotin on the N-terminus; directed disulfide bonds C9-C27 and C13-C23 (WaTx numbering)) [Biotin-GSGS-WaTx (N-terminal biotinylated Wasabi Receptor Toxin)],Kd,[13],0.33 pM
same,koff,[13],7.13e-06 s⁻¹
